Data reported in patent US20250320213A1, “Nitrogen-Containing Heterocyclic Compounds” (Pfizer Inc., priority 2024, published 2025).
Read-outs that look alike come from different tables or passages of the source.

Target: T1, STAT6 (Homo sapiens, UniProt P42226)
T1 construct: stably transfected HaCaT keratinocyte cell line, which expresses NanoLuc luciferase reporter gene under the transcriptional control of the STAT6 responsive promoter; endogenous in cells; host or cells: HaCaT keratinocyte reporter cell line (stably transfected with a NanoLuc reporter)
T1 sequence (P42226 1-847): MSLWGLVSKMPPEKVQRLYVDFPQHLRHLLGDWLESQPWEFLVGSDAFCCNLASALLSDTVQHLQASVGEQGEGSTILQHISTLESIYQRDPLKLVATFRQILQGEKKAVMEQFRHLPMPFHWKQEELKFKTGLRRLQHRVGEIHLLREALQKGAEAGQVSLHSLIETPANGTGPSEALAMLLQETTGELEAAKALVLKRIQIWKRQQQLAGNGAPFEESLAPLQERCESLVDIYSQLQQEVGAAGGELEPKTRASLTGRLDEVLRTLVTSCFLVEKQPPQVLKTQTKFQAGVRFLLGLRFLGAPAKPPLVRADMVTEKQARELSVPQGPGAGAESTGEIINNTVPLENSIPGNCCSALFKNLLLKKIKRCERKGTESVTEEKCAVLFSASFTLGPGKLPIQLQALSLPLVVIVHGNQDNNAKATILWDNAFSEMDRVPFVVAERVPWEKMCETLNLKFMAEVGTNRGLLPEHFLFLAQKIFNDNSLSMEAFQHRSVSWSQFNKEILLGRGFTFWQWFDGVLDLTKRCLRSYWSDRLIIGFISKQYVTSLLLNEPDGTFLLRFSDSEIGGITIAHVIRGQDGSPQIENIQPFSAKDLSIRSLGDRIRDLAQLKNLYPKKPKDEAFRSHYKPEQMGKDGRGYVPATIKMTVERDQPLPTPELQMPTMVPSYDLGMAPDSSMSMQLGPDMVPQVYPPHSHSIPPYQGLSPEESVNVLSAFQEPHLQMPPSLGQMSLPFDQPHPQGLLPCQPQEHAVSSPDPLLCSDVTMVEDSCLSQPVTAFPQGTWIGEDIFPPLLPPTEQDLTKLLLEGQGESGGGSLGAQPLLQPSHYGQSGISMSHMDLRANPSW
Test: STAT6 Reporter Luciferase Assay (IL-13 stimulated HaCaT keratinocyte NanoLuc reporter cells)
Type: cell-based
Settings: read-out: Reporter EC50
Method: Pharmacological measurements of STAT6 transcriptional activity through the IL-13-IL-13 receptor/IL-4 receptor pathway were made with a stably transfected HaCaT keratinocyte cell line, which expresses NanoLuc luciferase reporter gene under the transcriptional control of the STAT6 responsive promoter for IL-13Ra2. The readout of the STAT6 activity utilized Promega Nano-Glo Luciferase assay kit.
The reporter cells were cultured in a growth media comprised of DMEM High Glucose, no calcium and no glutamine, 10% heat inactivated fetal bovine serum (HI FBS), 1% 100× Glutamax, and 100 U/mL Penicillin-Streptomycin (units of penicillin in 1 mL of streptomycin). Seven thousand cells were plated in 25 microliter (μL) per well in a 384-well, white bottom, tissue culture plate. Cells were cultured overnight at 37° C. The next day, test compounds (solubilized and serially diluted in DMSO, in an 11 point, 4-fold dilution series in duplicate) were spotted, 60 nanoliters (nL) per well, into a 384 well v-bottom polypropylene plate. Thirty μL per well of 37° C. dosing media (Dulbecco's modified eagle medium (DMEM) High Glucose, no calcium and no glutamine with 2% HI FBS) was added to the compound plate. Growth media was removed from the cell plate, and the cells were washed with DPBS. Twenty μL per well of compounds diluted in dosing media were transferred from the compound plate to the cell plate and the compounds were further diluted with an additional 15 μL of dosing media in the cell plate: the cell plate was incubated for two hours at 37° C. After two hours, STAT6 activity was stimulated with the addition of 5 μL per well of IL-13 (R&D Systems) in dosing media with a final concentration of 0.12 nM IL13. Cells were incubated at 37° C. for 4 hours to allow for reporter gene expression, then all media was removed from the plate. The cell plates were treated with assay buffer and Luciferase substrate from Nano-Glo Luciferase Assay Kit for 15 min and then measured for luminescence on an EnVision 2105 multilabel reader (PerkinElmer).

[1] = STAT6 NanoLuc luciferase reporter, IL-13 stimulated HaCaT keratinocyte cells
[2] = IL-13 stimulated HaCaT STAT6 NanoLuc reporter cells

Compound	EC50 [1] [nM]	EC50 [2] [nM]
CNC(=O)C1CCCN1C(=O)c1ccc(N2CCc3c(c(C(=O)NCc4ccc(NC(=O)N(C)C)cc4)nn3C(C)C)C2)nc1 (racemic) [Example 245, rac-(R)-N-(4-(3,3-dimethylureido)benzyl)-1-isopropyl-5-(5-(2-(methylcarbamoyl)pyrrolidine-1-carbonyl)pyridin-2-yl)-4,5,6,7-tetrahydro-1H-pyrazolo[4,3-c]pyridine-3-carboxamide]	–	2090
CC(C)n1nc(C(=O)NCc2ccc(NC(=O)N(C)C)cc2)c2c1CCN(c1ccc(C(=O)N3C[C@@H]4OC(=O)N[C@@H]4C3)cn1)C2 (racemic) [Example 290, rac-N-(4-(3,3-dimethylureido)benzyl)-1-isopropyl-5-(5-((3aR,6aS)-2-oxohexahydro-2H-pyrrolo[3,4-d]oxazole-5-carbonyl)pyridin-2-yl)-4,5,6,7-tetrahydro-1H-pyrazolo[4,3-c]pyridine-3-carboxamide]	–	1410
CC(C)n1nc(C(=O)NCc2ccc(NC(=O)N(C)C)cc2)c2c1CCN(c1ccc(C(=O)N3C[C@H]4CCO[C@H]4C3)cn1)C2 (racemic) [Example 331, rac-N-(4-(3,3-dimethylureido)benzyl)-5-(5-((3aR,6aR)-hexahydro-2H-furo[2,3-c]pyrrole-5-carbonyl)pyridin-2-yl)-1-isopropyl-4,5,6,7-tetrahydro-1H-pyrazolo[4,3-c]pyridine-3-carboxamide]	–	606
CC(C)n1nc(C(=O)NCc2ccc(NC(=O)N(C)C)cc2)c2c1CCN(c1ccc(C(=O)N3C[C@@H]4OC(=O)N(C)[C@@H]4C3)cn1)C2 (racemic) [Example 334, rac-N-(4-(3,3-dimethylureido)benzyl)-1-isopropyl-5-(5-((3aR,6aS)-3-methyl-2-oxohexahydro-2H-pyrrolo[3,4-d]oxazole-5-carbonyl)pyridin-2-yl)-4,5,6,7-tetrahydro-1H-pyrazolo[4,3-c]pyridine-3-carboxamide]	–	176
CC(C)n1nc(C(=O)NCc2ccc(NC(=O)N3CCNCC3)cc2)c2c1C(C(F)(F)F)CN(c1ccc(C(=O)N(C)C)cc1)C2 (racemic) [Example 704, rac-(R)-5-(4-(dimethylcarbamoyl)phenyl)-1-isopropyl-N-(4-(piperazine-1-carboxamido)benzyl)-7-(trifluoromethyl)-4,5,6,7-tetrahydro-1H-pyrazolo[4,3-c]pyridine-3-carboxamide]	–	1
COCCC1(N)CCN(C(=O)Nc2ccc(CNC(=O)c3nn(C(C)C)c4c3CN(c3ccc(C(=O)N(C)C)cc3)C[C@@H]4C)cc2)C1 (single isomer, unassigned) [Example 670, (S)-N-(4-((R*)-3-amino-3-(2-methoxyethyl)pyrrolidine-1-carboxamido)benzyl)-5-(4-(dimethylcarbamoyl)phenyl)-1-isopropyl-7-methyl-4,5,6,7-tetrahydro-1H-pyrazolo[4,3-c]pyridine-3-carboxamide]	–	1

The next lines start with the values.

EC50 [1] [nM]	EC50 [2] [nM]	Compound
11	–	CC(C)n1nc(C(=O)NCc2ccc(NC(=O)N3C[C@H]4CC[C@@H]3C4)cc2)c2c1CCN(c1ccc(C(=O)N(C)C)cn1)C2 (racemic) [Example 143, rac-N-(4-((1R,4S)-2-azabicyclo[2.2.1]heptane-2-carboxamido)benzyl)-5-(5-(dimethylcarbamoyl)pyridin-2-yl)-1-isopropyl-4,5,6,7-tetrahydro-1H-pyrazolo[4,3-c]pyridine-3-carboxamide]
6	–	CC(C)n1nc(C(=O)NCc2ccc(NC(=O)N3CCC(C(F)F)C3)cc2)c2c1CCN(c1ccc(C(=O)N(C)C)cn1)C2 (racemic) [Example 145, rac-(R)-N-(4-(3-(difluoromethyl)pyrrolidine-1-carboxamido)benzyl)-5-(5-(dimethylcarbamoyl)pyridin-2-yl)-1-isopropyl-4,5,6,7-tetrahydro-1H-pyrazolo[4,3-c]pyridine-3-carboxamide]
–	401	COCC1CCN(C(=O)c2ccc(N3CCc4c(c(C(=O)NCc5ccc(NC(=O)N(C)C)cc5)nn4C(C)C)C3)nc2)C1 (racemic) [Example 194, rac-(R)-N-(4-(3,3-dimethylureido)benzyl)-1-isopropyl-5-(5-(3-(methoxymethyl)pyrrolidine-1-carbonyl)pyridin-2-yl)-4,5,6,7-tetrahydro-1H-pyrazolo[4,3-c]pyridine-3-carboxamide]
–	210	CC(C)n1nc(C(=O)NCc2ccc(NC(=O)N(C)C)cc2)c2c1CCN(c1ccc(C(=O)N3CCC(O)C3)cn1)C2 (racemic) [Example 198, rac-(R)-N-(4-(3,3-dimethylureido)benzyl)-5-(5-(3-hydroxypyrrolidine-1-carbonyl)pyridin-2-yl)-1-isopropyl-4,5,6,7-tetrahydro-1H-pyrazolo[4,3-c]pyridine-3-carboxamide]
–	535	CC(C)n1nc(C(=O)NCc2ccc(NC(=O)N(C)C)cc2)c2c1CCN(c1ccc(C(=O)N3CCCC3CO)cn1)C2 (racemic) [Example 208, rac-(R)-N-(4-(3,3-dimethylureido)benzyl)-5-(5-(2-(hydroxymethyl)pyrrolidine-1-carbonyl)pyridin-2-yl)-1-isopropyl-4,5,6,7-tetrahydro-1H-pyrazolo[4,3-c]pyridine-3-carboxamide]
–	1310	CC(C)n1nc(C(=O)NCc2ccc(NC(=O)N(C)C)cc2)c2c1CCN(c1ccc(C(=O)N3CCC(C)(O)C3)cn1)C2 (racemic) [Example 219, rac-(R)-N-(4-(3,3-dimethylureido)benzyl)-5-(5-(3-hydroxy-3-methylpyrrolidine-1-carbonyl)pyridin-2-yl)-1-isopropyl-4,5,6,7-tetrahydro-1H-pyrazolo[4,3-c]pyridine-3-carboxamide]
–	336	CC(C)n1nc(C(=O)NCc2ccc(NC(=O)N(C)C)cc2)c2c1CCN(c1ccc(C(=O)N3CCCC(O)C3)cn1)C2 (racemic) [Example 220, rac-(R)-N-(4-(3,3-dimethylureido)benzyl)-5-(5-(3-hydroxypiperidine-1-carbonyl)pyridin-2-yl)-1-isopropyl-4,5,6,7-tetrahydro-1H-pyrazolo[4,3-c]pyridine-3-carboxamide]
–	2800	CO[C@@H]1CN(C(=O)c2ccc(N3CCc4c(c(C(=O)NCc5ccc(NC(=O)N(C)C)cc5)nn4C(C)C)C3)nc2)C[C@H]1OC (racemic) [Example 333, rac-5-(5-((3R,4R)-3,4-dimethoxypyrrolidine-1-carbonyl)pyridin-2-yl)-N-(4-(3,3-dimethylureido)benzyl)-1-isopropyl-4,5,6,7-tetrahydro-1H-pyrazolo[4,3-c]pyridine-3-carboxamide]
–	0.4	CC(C)n1nc(C(=O)NCc2ccc(NC(=O)N3CCN(C)CC3)cc2)c2c1C(C(F)(F)F)CN(c1ccc(C(=O)N(C)C)cn1)C2 (racemic) [Example 701, rac-(R)-5-(5-(dimethylcarbamoyl)pyridin-2-yl)-1-isopropyl-N-(4-(4-methylpiperazine-1-carboxamido)benzyl)-7-(trifluoromethyl)-4,5,6,7-tetrahydro-1H-pyrazolo[4,3-c]pyridine-3-carboxamide]
–	1	CC(C)n1nc(C(=O)NCc2ccc(NC(=O)N3CCN(C)CC3)cc2)c2c1C(C(F)(F)F)CN(c1ccc(C(=O)N(C)C)cc1)C2 (racemic) [Example 703, rac-(R)-5-(4-(dimethylcarbamoyl)phenyl)-1-isopropyl-N-(4-(4-methylpiperazine-1-carboxamido)benzyl)-7-(trifluoromethyl)-4,5,6,7-tetrahydro-1H-pyrazolo[4,3-c]pyridine-3-carboxamide]
